Assay results taken from patent US10457710B2, “Antimicrobial peptides, their variants and uses” (priority 2015, dated 2019).
Where a SMILES comes first, the peptide text is derived from it. [ ]: non-standard residue; d: D form.

Experiments:
Format in all cases: cell-based
C. quillermondiae = test: MIC, clinical yeast strains; design: Minimum inhibitory concentration: unit: μg/ml; settings: C. quillermondiae clinical yeast strain 1
Procedure, shortened: (§1)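 Visual growth inhibition defined the MIC in a microdilution assay where fungal strains were cultured in potato dextrose broth instead of MH broth. Cell density was set to 5.0×10^5 cfu/ml, and incubation lasted 20–24 h at 37° C across a 0.125–128 μg/ml series.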

[1] = system: clinical strains of E. coli; test: MIC, microdilution, clinical strains; settings: microdilution, Muller Hinton broth-cation adjusted, 0.02% BSA, 0.2% acetic acid
Procedure, shortened: (§2)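 Broth microdilution with inocula adjusted to 5.0×10^5 cfu/ml; peptides tested at 0.125 to 128 μg/ml and incubated at 37° C for 20 to 24 hours. Bacteria were grown in Mueller Hinton broth, yeasts in potato dextrose broth. MIC was the lowest concentration showing no visible growth.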

[2] = system: clinical strains of K. pneumoniae; test: MIC, microdilution, clinical strains; settings: 0.02% BSA, 0.2% acetic acid
Procedure, shortened: as §2

[3] = system: clinical strains of S. aureus; test: MIC, microdilution, clinical strains; settings: 0.02% BSA, 0.2% acetic acid
Procedure, shortened: as §2

[4] = system: clinical strains of S. pneumoniae; test: MIC, microdilution, clinical strains; settings: 0.02% BSA, 0.2% acetic acid
Procedure, shortened: as §2

[5] = system: clinical strains of E. cloacae; test: MIC, microdilution, clinical strains; settings: 0.02% BSA, 0.2% acetic acid
Procedure, shortened: as §2

[6] = system: clinical strains of Proteus mirabilis; test: MIC, microdilution, clinical strains; settings: 0.02% BSA, 0.2% acetic acid
Procedure, shortened: as §2

[7] = system: clinical strains of P. aeruginosa; test: MIC, microdilution, clinical strains; settings: 0.02% BSA, 0.2% acetic acid
Procedure, shortened: as §2

[8] = system: clinical strains of Serratia marcescens; test: MIC, microdilution, clinical strains; settings: 0.02% BSA, 0.2% acetic acid
Procedure, shortened: as §2

C. glabrata = test: MIC, clinical yeast strains
Procedure, shortened: as §1

Candida albicans = test: MIC, clinical yeast strains
Procedure, shortened: as §1

C. parapsilosis = test: MIC, clinical yeast strains
Procedure, shortened: as §1

Question: With `CC(C)C[C@@H](NC(=O)[C@@H](CCCCN)NC(=O)[C@@H](CCCCN)NC(=O)[C@@H](Cc1ccccc1)NC(=O)[C@@H](CC(C)C)NC(=O)[C@@H](Cc1c[nH]c2ccccc12)NC(=O)[C@@H](CCCNC(=N)N)NC(=O)[C@@H](Cc1c[nH]c2ccccc12)NC(=O)[C@@H](CCCCN)NC(=O)[C@@H](CCCNC(=N)N)NC(=O)[C@H](N)CCCCN)C(=O)O` [Chain310D] (H-[dK][dR][dK][dW][dR][dW][dL][dF][dK][dK][dL]-OH) as the molecule, how does the Minimum inhibitory concentration (C. quillermondiae) read?
Answer: The Minimum inhibitory concentration was 8.

Question: And the Minimum inhibitory concentration ([1]; Escherichia coli strain 1)?
Answer: The Minimum inhibitory concentration was 4.

Question: And the Minimum inhibitory concentration ([1]; Escherichia coli strain 2)?
Answer: The Minimum inhibitory concentration was 32.

Question: And the Minimum inhibitory concentration ([1]; Escherichia coli strain 3)?
Answer: The Minimum inhibitory concentration was 16.

Question: What about the Minimum inhibitory concentration ([1]; Escherichia coli strain 4) of the same molecule?
Answer: The Minimum inhibitory concentration was 16.

Question: And the Minimum inhibitory concentration ([1]; Escherichia coli strain 5)?
Answer: Its Minimum inhibitory concentration is 16.

Question: What about the Minimum inhibitory concentration ([2]; Klebsiella pneumoniae strain 1, Muller Hinton broth-cation adjusted) of the same molecule?
Answer: Its Minimum inhibitory concentration is 64.

Question: And the Minimum inhibitory concentration ([2]; Klebsiella pneumoniae strain 2, Muller Hinton broth-cation adjusted)?
Answer: Its Minimum inhibitory concentration is 64.

Question: What about the Minimum inhibitory concentration ([2]; Klebsiella pneumoniae strain 3, Muller Hinton broth-cation adjusted) of the same molecule?
Answer: The Minimum inhibitory concentration was 128.

Question: And the Minimum inhibitory concentration ([2]; Klebsiella pneumoniae strain 4, Muller Hinton broth-cation adjusted)?
Answer: Its Minimum inhibitory concentration is 64.

Question: And the Minimum inhibitory concentration ([2]; Klebsiella pneumoniae strain 5, Muller Hinton broth-cation adjusted)?
Answer: Its Minimum inhibitory concentration is 32.

Question: What about the Minimum inhibitory concentration ([3]; Staphylococcus aureus strain 1, Muller Hinton broth-cation adjusted) of the same molecule?
Answer: The Minimum inhibitory concentration was 8.

Question: And the Minimum inhibitory concentration ([3]; Staphylococcus aureus strain 2, Muller Hinton broth-cation adjusted)?
Answer: Its Minimum inhibitory concentration is 16.

Question: And the Minimum inhibitory concentration ([3]; Staphylococcus aureus strain 3, Muller Hinton broth-cation adjusted)?
Answer: Its Minimum inhibitory concentration is 8.

Question: And the Minimum inhibitory concentration ([3]; Staphylococcus aureus strain 4, Muller Hinton broth-cation adjusted)?
Answer: Its Minimum inhibitory concentration is 8.

Question: And the Minimum inhibitory concentration ([3]; Staphylococcus aureus strain 5, Muller Hinton broth-cation adjusted)?
Answer: The Minimum inhibitory concentration was 4.

Question: And the Minimum inhibitory concentration ([4]; Streptococcus pneumoniae strain 1, Muller Hinton broth-cation adjusted)?
Answer: Its Minimum inhibitory concentration is 128.

Question: What about the Minimum inhibitory concentration ([4]; Streptococcus pneumoniae strain 2, Muller Hinton broth-cation adjusted) of the same molecule?
Answer: Its Minimum inhibitory concentration is 128.

Question: What about the Minimum inhibitory concentration ([4]; Streptococcus pneumoniae strain 3, Muller Hinton broth-cation adjusted) of the same molecule?
Answer: Its Minimum inhibitory concentration is 128.

Question: What about the Minimum inhibitory concentration ([4]; Streptococcus pneumoniae strain 4, Muller Hinton broth-cation adjusted) of the same molecule?
Answer: Its Minimum inhibitory concentration is 128.

Question: And the Minimum inhibitory concentration ([4]; Streptococcus pneumoniae strain 5, Muller Hinton broth-cation adjusted)?
Answer: Its Minimum inhibitory concentration is 64.

Question: What about the Minimum inhibitory concentration ([5]; Enterobacter cloacae strain 1, Muller Hinton broth-cation adjusted) of the same molecule?
Answer: The Minimum inhibitory concentration was 128.

Question: And the Minimum inhibitory concentration ([5]; Enterobacter cloacae strain 2, Muller Hinton broth-cation adjusted)?
Answer: Its Minimum inhibitory concentration is 64.

Question: And the Minimum inhibitory concentration ([5]; Enterobacter cloacae strain 3, Muller Hinton broth-cation adjusted)?
Answer: The Minimum inhibitory concentration was 16.

Question: And the Minimum inhibitory concentration ([5]; Enterobacter cloacae strain 4, Muller Hinton broth-cation adjusted)?
Answer: Its Minimum inhibitory concentration is 8.

Question: And the Minimum inhibitory concentration ([5]; Enterobacter cloacae strain 5, Muller Hinton broth-cation adjusted)?
Answer: The Minimum inhibitory concentration was 16.

Question: What about the Minimum inhibitory concentration ([6]; Proteus mirabilis strain 1, Muller Hinton broth-cation adjusted) of the same molecule?
Answer: The Minimum inhibitory concentration was greater than 128.

Question: And the Minimum inhibitory concentration ([6]; Proteus mirabilis strain 2, Muller Hinton broth-cation adjusted)?
Answer: Its Minimum inhibitory concentration is greater than 128.

Question: And the Minimum inhibitory concentration ([6]; Proteus mirabilis strain 3, Muller Hinton broth-cation adjusted)?
Answer: Its Minimum inhibitory concentration is greater than 128.

Question: What about the Minimum inhibitory concentration ([6]; Proteus mirabilis strain 4, Muller Hinton broth-cation adjusted) of the same molecule?
Answer: The Minimum inhibitory concentration was greater than 128.

Question: And the Minimum inhibitory concentration ([6]; Proteus mirabilis strain 5, Muller Hinton broth-cation adjusted)?
Answer: The Minimum inhibitory concentration was greater than 128.

Question: What about the Minimum inhibitory concentration ([7]; Pseudomonas aeruginosa strain 1, Muller Hinton broth-cation adjusted) of the same molecule?
Answer: Its Minimum inhibitory concentration is 8.

Question: What about the Minimum inhibitory concentration ([7]; Pseudomonas aeruginosa strain 2, Muller Hinton broth-cation adjusted) of the same molecule?
Answer: Its Minimum inhibitory concentration is 16.

Question: And the Minimum inhibitory concentration ([7]; Pseudomonas aeruginosa strain 3, Muller Hinton broth-cation adjusted)?
Answer: Its Minimum inhibitory concentration is 16.

Question: What about the Minimum inhibitory concentration ([7]; Pseudomonas aeruginosa strain 4, Muller Hinton broth-cation adjusted) of the same molecule?
Answer: Its Minimum inhibitory concentration is 8.

Question: What about the Minimum inhibitory concentration ([7]; Pseudomonas aeruginosa strain 5, Muller Hinton broth-cation adjusted) of the same molecule?
Answer: Its Minimum inhibitory concentration is 4.

Question: What about the Minimum inhibitory concentration ([8]; Serratia marcescens strain 1, Muller Hinton broth-cation adjusted) of the same molecule?
Answer: The Minimum inhibitory concentration was greater than 128.

Question: What about the Minimum inhibitory concentration ([8]; Serratia marcescens strain 2, Muller Hinton broth-cation adjusted) of the same molecule?
Answer: The Minimum inhibitory concentration was greater than 128.

Question: What about the Minimum inhibitory concentration ([8]; Serratia marcescens strain 3, Muller Hinton broth-cation adjusted) of the same molecule?
Answer: The Minimum inhibitory concentration was greater than 128.

Question: What about the Minimum inhibitory concentration ([8]; Serratia marcescens strain 4, Muller Hinton broth-cation adjusted) of the same molecule?
Answer: Its Minimum inhibitory concentration is greater than 128.

Question: And the Minimum inhibitory concentration ([8]; Serratia marcescens strain 5, Muller Hinton broth-cation adjusted)?
Answer: The Minimum inhibitory concentration was greater than 128.

Question: What about the Minimum inhibitory concentration (C. glabrata; C. glabrata clinical yeast strain 1) of the same molecule?
Answer: The Minimum inhibitory concentration was 16.

Question: What about the Minimum inhibitory concentration (C. glabrata; C. glabrata clinical yeast strain 2) of the same molecule?
Answer: The Minimum inhibitory concentration was 16.

Question: And the Minimum inhibitory concentration (C. glabrata; C. glabrata clinical yeast strain 3)?
Answer: The Minimum inhibitory concentration was 128.

Question: And the Minimum inhibitory concentration (C. glabrata; C. glabrata clinical yeast strain 4)?
Answer: The Minimum inhibitory concentration was 128.

Question: What about the Minimum inhibitory concentration (Candida albicans; Candida albicans clinical yeast strain 1) of the same molecule?
Answer: Its Minimum inhibitory concentration is 16.

Question: What about the Minimum inhibitory concentration (Candida albicans; Candida albicans clinical yeast strain 2) of the same molecule?
Answer: Its Minimum inhibitory concentration is 16.

Question: And the Minimum inhibitory concentration (Candida albicans; Candida albicans clinical yeast strain 3)?
Answer: The Minimum inhibitory concentration was 16.

Question: What about the Minimum inhibitory concentration (Candida albicans; Candida albicans clinical yeast strain 4) of the same molecule?
Answer: Its Minimum inhibitory concentration is 16.

Question: And the Minimum inhibitory concentration (Candida albicans; Candida albicans clinical yeast strain 5)?
Answer: Its Minimum inhibitory concentration is 16.

Question: What about the Minimum inhibitory concentration (C. parapsilosis; C. parapsilosis clinical yeast strain 1) of the same molecule?
Answer: The Minimum inhibitory concentration was 64.

Question: What about the Minimum inhibitory concentration (C. parapsilosis; C. parapsilosis clinical yeast strain 2) of the same molecule?
Answer: The Minimum inhibitory concentration was 64.

Question: And the Minimum inhibitory concentration (C. parapsilosis; C. parapsilosis clinical yeast strain 3)?
Answer: Its Minimum inhibitory concentration is 64.

Question: What about the Minimum inhibitory concentration (C. parapsilosis; C. parapsilosis clinical yeast strain 4) of the same molecule?
Answer: Its Minimum inhibitory concentration is 16.
